Values of other authors, collected in patent US11236044B2, “Selective inhibitors of 12(S)-lipoxygenase (12-LOX) and methods for use of the same” (THE REGENTS OF THE UNIVERSITY OF MICHIGAN, priority 2018, dated 2022).

Legend:
[1] = target: T1, 5-human lipoxygenase (Homo sapiens, UniProt P09917); conditions: 12-LOX versus paralog; cited from earlier work
T1 sequence (P09917 1-674): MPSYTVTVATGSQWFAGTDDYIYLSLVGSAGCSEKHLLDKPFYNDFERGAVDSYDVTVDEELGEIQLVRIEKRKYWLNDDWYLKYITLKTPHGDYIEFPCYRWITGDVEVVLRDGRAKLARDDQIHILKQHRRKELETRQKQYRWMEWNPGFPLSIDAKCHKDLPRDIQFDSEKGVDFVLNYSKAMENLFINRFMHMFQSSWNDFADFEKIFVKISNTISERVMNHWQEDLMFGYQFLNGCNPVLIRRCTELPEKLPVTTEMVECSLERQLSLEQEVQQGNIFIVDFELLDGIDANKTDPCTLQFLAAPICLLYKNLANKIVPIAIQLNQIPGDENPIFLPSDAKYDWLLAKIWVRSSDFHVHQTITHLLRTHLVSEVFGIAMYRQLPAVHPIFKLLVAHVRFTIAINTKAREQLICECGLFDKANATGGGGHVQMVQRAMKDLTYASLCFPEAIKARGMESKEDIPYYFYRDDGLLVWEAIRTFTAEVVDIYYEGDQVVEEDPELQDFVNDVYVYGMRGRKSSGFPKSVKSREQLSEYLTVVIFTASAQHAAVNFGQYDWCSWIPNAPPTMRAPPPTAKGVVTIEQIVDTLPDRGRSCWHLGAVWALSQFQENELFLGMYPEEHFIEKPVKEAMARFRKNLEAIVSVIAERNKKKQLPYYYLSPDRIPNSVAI

[2] = target: T2, epithelial 15-human lipoxygenase type-2 (Homo sapiens, UniProt O15296); conditions: 12-LOX versus paralog; cited from earlier work
T2 sequence (O15296 1-676): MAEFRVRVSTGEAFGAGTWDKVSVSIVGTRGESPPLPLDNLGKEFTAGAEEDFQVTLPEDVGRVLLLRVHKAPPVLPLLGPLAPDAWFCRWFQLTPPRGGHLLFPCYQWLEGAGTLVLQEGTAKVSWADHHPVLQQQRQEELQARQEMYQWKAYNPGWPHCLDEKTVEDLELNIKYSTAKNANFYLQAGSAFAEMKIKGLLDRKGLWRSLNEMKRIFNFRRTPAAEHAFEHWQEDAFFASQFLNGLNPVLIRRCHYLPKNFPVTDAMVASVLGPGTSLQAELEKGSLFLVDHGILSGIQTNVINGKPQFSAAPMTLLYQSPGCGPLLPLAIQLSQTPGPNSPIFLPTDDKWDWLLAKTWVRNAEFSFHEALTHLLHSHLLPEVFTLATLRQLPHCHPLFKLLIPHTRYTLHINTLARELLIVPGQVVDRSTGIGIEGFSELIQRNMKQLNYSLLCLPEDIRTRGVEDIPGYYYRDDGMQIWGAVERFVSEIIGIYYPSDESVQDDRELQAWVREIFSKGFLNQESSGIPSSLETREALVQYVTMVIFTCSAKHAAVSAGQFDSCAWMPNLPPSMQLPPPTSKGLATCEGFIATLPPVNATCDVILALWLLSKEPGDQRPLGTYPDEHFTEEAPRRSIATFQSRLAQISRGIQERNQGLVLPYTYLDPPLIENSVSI

[3] = target: T3, bovine cyclooxygenase (“COX”)-1 (Bos taurus, UniProt O62664); conditions: 12-LOX versus bovine COX-1; cited from earlier work
T3 sequence (O62664 25-600): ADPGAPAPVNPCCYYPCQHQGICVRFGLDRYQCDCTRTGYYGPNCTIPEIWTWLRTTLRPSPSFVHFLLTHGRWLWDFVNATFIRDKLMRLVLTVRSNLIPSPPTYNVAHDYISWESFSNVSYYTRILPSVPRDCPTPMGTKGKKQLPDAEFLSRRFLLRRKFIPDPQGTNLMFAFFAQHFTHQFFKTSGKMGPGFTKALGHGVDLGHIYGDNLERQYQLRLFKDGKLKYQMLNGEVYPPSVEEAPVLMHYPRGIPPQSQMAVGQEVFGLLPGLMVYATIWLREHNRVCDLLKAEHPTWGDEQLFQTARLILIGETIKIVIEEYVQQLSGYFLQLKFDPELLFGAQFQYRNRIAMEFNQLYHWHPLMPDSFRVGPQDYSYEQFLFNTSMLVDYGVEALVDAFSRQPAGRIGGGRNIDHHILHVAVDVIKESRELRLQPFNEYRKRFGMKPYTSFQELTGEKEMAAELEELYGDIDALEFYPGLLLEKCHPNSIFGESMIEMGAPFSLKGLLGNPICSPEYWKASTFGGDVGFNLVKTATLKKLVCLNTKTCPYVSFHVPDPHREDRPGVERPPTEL

[4] = target: T4, human COX-2 (Homo sapiens, UniProt P35354); conditions: 12-LOX versus human COX-2; cited from earlier work
T4 sequence (P35354 18-604): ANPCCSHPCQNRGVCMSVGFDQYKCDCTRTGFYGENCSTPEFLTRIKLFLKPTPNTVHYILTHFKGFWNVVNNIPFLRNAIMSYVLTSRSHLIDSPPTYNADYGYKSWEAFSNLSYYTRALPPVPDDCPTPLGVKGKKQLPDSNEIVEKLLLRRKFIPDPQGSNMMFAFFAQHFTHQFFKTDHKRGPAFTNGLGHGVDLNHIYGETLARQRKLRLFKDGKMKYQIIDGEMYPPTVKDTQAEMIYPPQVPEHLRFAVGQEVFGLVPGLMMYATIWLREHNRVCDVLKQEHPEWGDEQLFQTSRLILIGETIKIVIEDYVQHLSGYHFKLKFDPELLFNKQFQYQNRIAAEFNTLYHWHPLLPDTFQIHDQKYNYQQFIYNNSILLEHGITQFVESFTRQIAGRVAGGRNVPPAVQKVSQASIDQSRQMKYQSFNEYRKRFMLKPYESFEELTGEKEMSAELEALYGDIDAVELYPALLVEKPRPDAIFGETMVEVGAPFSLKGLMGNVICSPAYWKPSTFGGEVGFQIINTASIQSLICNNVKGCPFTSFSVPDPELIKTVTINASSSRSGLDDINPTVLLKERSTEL

[5] = cited from earlier work
[6] = test system: thrombus formation and vessel occlusion; conditions: cited from earlier work
[7] = in vivo; cited from earlier work
[8] = cited from earlier work; remark: listed apart in the source
[9] = target: reticulocyte 15-human lipoxygenase type-1 (Homo sapiens, UniProt P16050); conditions: 12-LOX versus paralog; cited from earlier work
reticulocyte 15-human lipoxygenase type-1, sequence (P16050 whole entry): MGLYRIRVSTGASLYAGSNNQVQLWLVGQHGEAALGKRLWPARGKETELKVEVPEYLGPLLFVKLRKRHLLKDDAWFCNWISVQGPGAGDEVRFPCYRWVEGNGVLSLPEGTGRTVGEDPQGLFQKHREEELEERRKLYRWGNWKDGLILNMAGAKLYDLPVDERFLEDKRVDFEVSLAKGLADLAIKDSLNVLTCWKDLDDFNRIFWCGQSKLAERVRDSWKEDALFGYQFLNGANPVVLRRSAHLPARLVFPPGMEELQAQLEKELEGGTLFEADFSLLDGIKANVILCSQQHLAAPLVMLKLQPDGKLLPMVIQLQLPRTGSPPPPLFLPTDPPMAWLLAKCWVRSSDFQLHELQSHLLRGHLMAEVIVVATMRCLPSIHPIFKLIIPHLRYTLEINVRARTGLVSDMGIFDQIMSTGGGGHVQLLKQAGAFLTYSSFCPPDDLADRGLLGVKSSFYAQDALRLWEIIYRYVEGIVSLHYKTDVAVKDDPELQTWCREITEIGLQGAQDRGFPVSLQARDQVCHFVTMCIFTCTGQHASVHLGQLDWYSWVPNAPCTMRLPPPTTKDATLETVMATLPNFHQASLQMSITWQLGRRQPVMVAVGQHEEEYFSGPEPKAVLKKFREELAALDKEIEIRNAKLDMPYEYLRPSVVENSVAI

In the case of `COc1cccc(CNc2ccc(S(=O)(=O)Nc3nc4ccccc4s3)cc2)c1O` [ML355], the “selectivity versus 5-human lipoxygenase” value [1] is listed as > 50 fold, the “selectivity versus epithelial 15-human lipoxygenase type-2” value [2] is listed as > 50 fold and the “selectivity versus bovine COX-1” value [3] is listed as > 100 fold. For the same molecule, the “selectivity versus human COX-2” value [4] was > 100 fold, the solubility [5] was “limited solubility” and the “thrombus formation and vessel occlusion in vivo” value [6] was “impair thrombus formulation and vessel occlusion in vivo”. The effects on hemostasis ([6]; in vivo) was “minimal affects on hemostasis”, the pharmacokinetics [7] was “reasonable pharmacokinetics” and the “tolerance in preclinical studies” value [8] was “relatively good tolerance”. For the same molecule, the “selectivity versus reticulocyte 15-human lipoxygenase type-1” value [9] was > 50 fold.
